Laboratory results published in PMC9927571, “Antibacterial Activity of an FtsZ Inhibitor Celastrol and Its Synergistic Effect with Vancomycin against Enterococci In Vitro and In Vivo” (Microbiology Spectrum, 2023).

Molecular target: T1, FtsZ (Filamenting temperature-sensitive mutant Z) (Enterococcus faecalis, UniProt O08439)
T1 construct: recombinant E. faecalis FtsZ protein (FTZ04-B)
Experiment: SPR (Biacore T200, FtsZ immobilized on CM5 chip); also GTPase inhibition of E. faecalis FtsZ, IC50 […]
Format: binding

T1 sequence (O08439 whole entry, change not shown): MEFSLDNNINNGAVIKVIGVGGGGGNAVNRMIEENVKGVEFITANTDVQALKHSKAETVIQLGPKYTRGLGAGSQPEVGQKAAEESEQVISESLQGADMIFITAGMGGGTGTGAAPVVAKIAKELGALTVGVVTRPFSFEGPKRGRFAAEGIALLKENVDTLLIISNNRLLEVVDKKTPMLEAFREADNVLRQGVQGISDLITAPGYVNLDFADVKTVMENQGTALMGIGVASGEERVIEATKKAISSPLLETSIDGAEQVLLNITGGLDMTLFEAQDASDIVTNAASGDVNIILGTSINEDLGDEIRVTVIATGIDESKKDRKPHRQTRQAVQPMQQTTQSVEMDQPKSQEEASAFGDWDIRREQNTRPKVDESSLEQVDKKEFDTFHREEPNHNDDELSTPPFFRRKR

For `CC1=C(O)C(=O)C=C2C1=CC=C1[C@@]2(C)CC[C@@]2(C)[C@@H]3C[C@](C)(C(=O)O)CC[C@]3(C)CC[C@]12C` [CEL, celastrol], the Kd was 2450 nM.
